Usually IC50 stands for the concentration that gives 50% inhibition.

This passage reports IC50 results from ChEMBL document CHEMBL4219155, “Structure-based drug design of 1,3,6-trisubstituted 1,4-diazepan-7-ones as selective human kallikrein 7 inhibitors” (Bioorg Med Chem Lett, 2018).

The target of test [1] is Kallikrein-7 (Homo sapiens, UniProt P49862). In words: Inhibition of recombinant human KLK7 using MOCAc-Arg-Pro-Lys-Pro-Val-Glu-Nva-Trp-Arg-Lys(Dnp)-NH2 as substrate preincubated for 10 mins followed by substrate addition measured after 30 mins by fluorescence assay.
Test [2] addresses Trypsin (Homo sapiens, UniProt P07477+P07478+P35030). Briefly: Inhibition of human trypsin using Boc-Gln-Ala-Arg-MCA as substrate preincubated for 10 mins followed by substrate addition measured after 30 mins by fluorescence assay. The class given is protein assay.
Test [3] in a line: Inhibition of human chymotrypsin using Suc-Ala-Ala-Pro-Phe-MCA as substrate preincubated for 10 mins followed by substrate addition measured after 30 mins by fluorescence assay.
The target in test [4] is T1, Kallikrein-5 (Homo sapiens, UniProt Q9Y337).
T1 sequence (Q9Y337 whole entry): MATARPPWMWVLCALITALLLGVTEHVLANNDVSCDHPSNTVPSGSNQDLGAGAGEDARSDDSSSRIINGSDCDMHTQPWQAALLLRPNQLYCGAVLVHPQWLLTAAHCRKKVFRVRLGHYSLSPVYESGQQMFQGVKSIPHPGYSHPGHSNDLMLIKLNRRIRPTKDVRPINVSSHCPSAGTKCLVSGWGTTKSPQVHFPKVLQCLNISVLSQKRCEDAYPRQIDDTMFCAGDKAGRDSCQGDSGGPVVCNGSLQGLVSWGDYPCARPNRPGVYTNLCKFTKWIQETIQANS
In words: Inhibition of recombinant human KLK5 using Boc-Val-Pro-Arg-MCA as substrate preincubated for 10 mins followed by substrate addition measured after 30 mins by fluorescence assay.

Kallikrein-7, sequence (P49862 whole entry): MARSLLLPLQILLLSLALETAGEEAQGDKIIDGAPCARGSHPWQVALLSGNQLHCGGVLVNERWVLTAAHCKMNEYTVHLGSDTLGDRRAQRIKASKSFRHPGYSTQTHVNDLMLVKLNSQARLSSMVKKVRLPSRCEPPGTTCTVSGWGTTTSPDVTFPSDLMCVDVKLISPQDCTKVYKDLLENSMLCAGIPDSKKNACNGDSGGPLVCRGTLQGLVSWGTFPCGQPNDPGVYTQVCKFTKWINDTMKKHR

`COc1ccc(Cl)cc1C[C@@H]1CN/C(=N\N(C)C)CN(CC(=O)Nc2cccc(S(=O)(=O)C(F)(F)F)c2)C1=O`: the IC50 in test [1] was found to be 3.9 µM.

In the case of `COc1cccc(NC(=O)CN2C/C(=N/N(C)C)NC[C@@H](Cc3cc(Cl)ccc3OC)C2=O)c1`, the IC50 in test [1] amounted to 2.7 µM.

Take `CC[C@H](C(=O)Nc1cccc(-c2cnn(C)c2)c1)N1C/C(=N/N(C)C)NC[C@@H](Cc2cc(Cl)ccc2OC)C1=O`: the concentration for half-maximal inhibition (IC50) in test [1] is 2.8 µM.

Take `COc1ccc(Cl)cc1C[C@@H]1CN/C(=N\N(C)C)CN([C@H](C)C(=O)Nc2cccc(-c3cnn(C)c3)c2)C1=O`: the IC50 in test [1] came to 0.92 µM.

Consider `COc1ccc(Cl)cc1C[C@@H]1CN/C(=N\N(C)C)CN(CC(=O)Nc2cccc(S(=O)(=O)N(C)C)c2)C1=O`, for which the IC50 in test [1] is 0.99 µM.

Turning to `CCC[C@@H](C(=O)Nc1cccc(-c2cnn(C)c2)c1)N1C/C(=N/N(C)C)NC[C@@H](Cc2cc(Cl)ccc2OC)C1=O`, the IC50 in test [2] was over 30 µM; in test [3], 1.3 µM; in test [1], 0.048 µM; in test [4], over 30 µM.

`COc1ccc(Cl)cc1C[C@@H]1CN/C(=N\N(C)C)CN(CC(=O)Nc2cccc(-c3ccsc3)c2)C1=O`: in test [1], the IC50 stood at 1.5 µM.

Turning to `COc1ccc(Cl)cc1C[C@@H]1CN/C(=N\N(C)C)CN(CC(=O)Nc2cccc(-c3cccs3)c2)C1=O`, the IC50 in test [1] was determined as 0.87 µM.

In the case of `CCCC[C@@H](C(=O)Nc1cccc(-c2cnn(C)c2)c1)N1C/C(=N/N(C)C)NC[C@@H](Cc2cc(Cl)ccc2OC)C1=O`, in test [1], the IC50 came to 0.11 µM.

As to `CC[C@@H](C(=O)Nc1cccc(-c2cnn(C)c2)c1)N1C/C(=N/N(C)C)NC[C@@H](Cc2cc(Cl)ccc2OC)C1=O`, the IC50 in test [1] came to 0.45 µM.

Consider `COc1ccc(Cl)cc1C[C@@H]1CN/C(=N\N(C)C)CN(CC(=O)Nc2cccc(-c3ccco3)c2)C1=O`, for which, in test [1], the IC50 amounted to 0.59 µM.

For `COc1ccc(Cl)cc1C[C@@H]1CN/C(=N\N(C)C)CN(CC(=O)Nc2cccc(C(=O)N(C)C)c2)C1=O`, in test [1], the IC50 was determined as 2.5 µM.

For the molecule `COc1ccc(Cl)cc1C[C@@H]1CN/C(=N\N(C)C)CN([C@@H](C)C(=O)Nc2cccc(-c3cnn(C)c3)c2)C1=O`, the IC50 is over 30 µM in test [2], 3.1 µM in test [3], 0.058 µM in test [1] and over 30 µM in test [4].

Consider `COc1ccc(Cl)cc1C[C@@H]1CN/C(=N\N(C)C)CN(CC(=O)Nc2cccc(-c3ccoc3)c2)C1=O`, for which the IC50 in test [1] was determined as 0.67 µM.

Regarding `COc1ccc(Cl)cc1C[C@@H]1CN/C(=N\N(C)C)CN(CC(=O)Nc2cccc(-c3cnn(C)c3)c2)C1=O`, the IC50 was over 30 µM in test [2], over 30 µM in test [3], 0.52 µM in test [1] and over 30 µM in test [4].

For `CCC[C@H](C(=O)Nc1cccc(-c2cnn(C)c2)c1)N1C/C(=N/N(C)C)NC[C@@H](Cc2cc(Cl)ccc2OC)C1=O`, the IC50 in test [1] was found to be 7 µM.

As for `CNC(=O)c1cccc(NC(=O)CN2C/C(=N/N(C)C)NC[C@@H](Cc3cc(Cl)ccc3OC)C2=O)c1`, the IC50 in test [1] came to 0.94 µM.

Consider `CCCC[C@H](C(=O)Nc1cccc(-c2cnn(C)c2)c1)N1C/C(=N/N(C)C)NC[C@@H](Cc2cc(Cl)ccc2OC)C1=O`, for which the IC50 in test [1] is 4.1 µM.

Turning to `COc1ccc(Cl)cc1C[C@@H]1CN/C(=N\N(C)C)CN(CC(=O)Nc2cccc(C(F)(F)F)c2)C1=O`, in test [1], the IC50 amounted to 4.3 µM.

Turning to `COc1ccc(Cl)cc1C[C@@H]1CN/C(=N\N(C)C)CN(CC(=O)Nc2cccc(C#N)c2)C1=O`, in test [1], the IC50 worked out at 5.3 µM.
